Counter-ions that a name gives are not always drawn.
Assays:
[1] = tested on: human ovarian cancer SK-OV-3; details: 24 mg/kg (paclitaxel 16 mg/kg) D0-4 IV; for Tumor volume (D0): D0, at grouping; for Tumor inhibitory percent (%) D22: P=0.000 compared to the control
Excerpt: Test of the inhibitory activity of the water soluble paclitaxel derivatives on subcutaneously xenografted tumor of human ovarian cancer SK-OV-3 in nude mice: evaluating and comparing the inhibitory activity of the water soluble paclitaxel derivatives of the present invention, paclitaxel and Abraxane® on subcutaneously xenografted tumor of human ovarian cancer SK-OV-3 in nude mice.
Human ovarian cancer SK-OV-3 cells were subcutaneously inoculated to nude mice. After the tumor volume reached 100-150 mm^3, the animals were randomly divided into groups (D0), and administered with the water soluble paclitaxel derivatives of the present invention, paclitaxel, and Abraxane®, respectively once per day for 5 days. The tumor volume was measured 2-3 times per week, the animals were weighed and the data were recorded until day 22 (D22) after grouping.
The tumor volume (V) was calculated according to the equation: V=½×a×b^2, wherein a and b represent the length and the width, respectively.
T/C (%)=(T−T0)/(C−C0)×100, wherein T and C represent the tumor volume at the end of the experiment; and T0 and C0 represent the tumor volume at the beginning of the experiment.

[2] = In vitro dissociation of the water soluble taxane derivatives in blood plasma of rabbit; format: in vitro ADME, New Zealand white rabbits; details: 37° C.
Procedure: The obtained water soluble taxane derivatives were formulated as 0.2 mg/ml aqueous solutions. […] After 5 min, 20 min and 60 min of incubation, 0.2 ml of solutions were respectively taken from each of the samples, and added to acetonitrile (0.4 ml) cooled to −20° C. for precipitation of protein.

[3] = In vitro dissociation of the water soluble taxane derivatives in blood plasma of rat; format: in vitro ADME, SD rats; details: 37° C.
Procedure: The obtained water soluble taxane derivatives were formulated as 0.2 mg/ml aqueous solutions. […] After 2 min, 5 min and 10 min of incubation, 0.2 ml of solutions were respectively taken from each of the samples, and added to acetonitrile (0.4 ml) cooled to −20° C. for precipitation of protein.

| Molecule | Tumor volume (D0) [1] [mm^3] | Weight change (%) D4 [1] [%] | T/C (%) D22 [1] [%] | Tumor volume (D22) [1] [mm^3] | Tumor inhibitory percent (%) D22 [1] [%] | dissociation percent ([2]; 5 min) [%] | dissociation percent ([2]; 20 min) [%] | dissociation percent ([2]; 60 min) [%] | dissociation percent ([3]; 2 min) [%] | dissociation percent ([3]; 5 min) [%] | dissociation percent ([3]; 10 min) [%] |
| --- | --- | --- | --- | --- | --- | --- | --- | --- | --- | --- | --- |
| CC(=O)O[C@H]1C(=O)[C@@]2(C)[C@H]([C@H](OC(=O)c3ccccc3)[C@]3(O)C[C@H](OC(=O)[C@H](OC(=O)[C@H](F)CCCN(C)C)[C@@H](NC(=O)c4ccccc4)c4ccccc4)C(C)=C1C3(C)C)[C@]1(OC(C)=O)CO[C@@H]1C[C@@H]2O.O=C(O)/C=C\C(=O)O [Compound 21, 2′-O-[5-(N,N-dimethyl)amino-2(R)-fluorovaleryl]paclitaxel maleate] | 135.8 ± 14.7 | −9.4 | −23 | 70.8 ± 16.8 | 60 |  |  |  |  |  |  |
| CC(=O)O[C@H]1C(=O)[C@@]2(C)[C@H]([C@H](OC(=O)c3ccccc3)[C@]3(O)C[C@H](OC(=O)[C@H](OC(=O)[C@H](F)CCN(C)C)[C@@H](NC(=O)c4ccccc4)c4ccccc4)C(C)=C1C3(C)C)[C@]1(OC(C)=O)CO[C@@H]1C[C@@H]2O.CS(=O)(=O)O [Compound C1, 2′-O-[4-(N,N-dimethyl)amino-2(R)-fluorobutyryl]paclitaxel methanesulfonate] | 133.6 ± 9.5 | −5.9 | −63 |  | 163 | 77.2 | 98.4 | 100 | 64.3 | 97.0 | 100 |
| 2′-O-[5-(N-methyl-N-ethyl)amino-2(R)-2-difluoroethylvaleryl]docetaxel hydrochloride [Compound 12] |  |  |  |  |  | 35.2 | 61.3 | 73.2 | 43.6 | 75.6 | 89.6 |
| CC(=O)OC1C(=O)C2(C)C(O)CC3OCC3(OC(C)=O)C2C(OC(=O)c2ccccc2)C2(O)CC(OC(=O)C(OC(=O)C(CCCCN(C)C)C(F)F)C(NC(=O)c3ccccc3)c3ccccc3)C(C)=C1C2(C)C.O=S(=O)(O)O [Compound 22, 2′-O-[6-(N,N-dimethyl)amino-2(S)-2-difluoromethylhexanoyl]paclitaxel sulfate] | 133.8 ± 12.2 | −11.6 | −14 | 79.8 ± 12.8 | 36 |  |  |  |  |  |  |
| COC1C(=O)C2(C)C(OC)CC3OCC3(OC(C)=O)C2C(OC(=O)c2ccccc2)C2(O)CC(OC(=O)C(OC(=O)C(F)CCN(C)C)C(NC(=O)OC(C)(C)C)c3ccccc3)C(C)=C1C2(C)C.Cl [Compound 09, 2′-O-[4-(N,N-dimethyl)amino-2(R,S)-fluorobutyryl]cabazitaxel hydrochloride] |  |  |  |  |  | 83.2 | 97.1 | 100 | 47.8 | 89.1 | 100 |
| CCN(CC)CC[C@H](F)C(=O)O[C@@H](C(=O)O[C@H]1C[C@@]2(O)[C@@H](OC(=O)c3ccccc3)[C@@H]3[C@]4(OC(C)=O)CO[C@@H]4C[C@H](O)[C@@]3(C)C(=O)[C@H](OC(C)=O)C(=C1C)C2(C)C)[C@@H](NC(=O)c1ccccc1)c1ccccc1.O=C(O)/C=C/C(=O)O [Compound 17, 2′-O-[4-(N,N-diethyl)amino-2(S)-fluorobutyryl]paclitaxel fumarate] | 133.6 ± 9.4 | −8.1 | −44 | 55.7 ± 10.1 | 114 |  |  |  |  |  |  |
| CC(=O)O[C@H]1C(=O)[C@@]2(C)[C@H]([C@H](OC(=O)c3ccccc3)[C@]3(O)C[C@H](OC(=O)[C@H](OC(=O)[C@@H](F)CCN(C)C)[C@@H](NC(=O)c4ccccc4)c4ccccc4)C(C)=C1C3(C)C)[C@]1(OC(C)=O)CO[C@@H]1C[C@@H]2O.CS(=O)(=O)O [Compound C2, 2′-O-[4-(N,N-dimethyl)amino-2(S)-fluorobutyryl]paclitaxel methanesulfonate] |  | −5.8 | −61 | 51.2 ± 11.2 | 158 | 69.7 | 98.1 | 100 | 62.8 | 96.5 | 100 |
| CC(=O)O[C@H]1C(=O)[C@@]2(C)[C@H]([C@H](OC(=O)c3ccccc3)[C@]3(O)C[C@H](OC(=O)[C@H](OC(=O)C(CCN(C)C)C(F)F)[C@@H](NC(=O)c4ccccc4)c4ccccc4)C(C)=C1C3(C)C)[C@]1(OC(C)=O)CO[C@@H]1C[C@@H]2O.Cl (stereo partly drawn) [Compound 20, 2′-O-[4-(N,N-dimethyl)amino-2(R,S)-2-difluoromethylbutyryl]paclitaxel hydrochloride] | 133.4 ± 12.6 | −8.4 | −35 | 61.2 ± 13.5 | 91 |  |  |  |  |  |  |
| COC1C(=O)C2(C)C(OC)CC3OCC3(OC(C)=O)C2C(OC(=O)c2ccccc2)C2(O)CC(OC(=O)C(OC(=O)C(CCN)C(F)F)C(NC(=O)OC(C)(C)C)c3ccccc3)C(C)=C1C2(C)C.O=S(=O)([O-])O.[Na+] [Compound 10, 2′-O-[4-amino-2(R)-difluoromethylbutyryl]cabazitaxel sodium bisulfate salt] |  |  |  |  |  | 38.1 | 63.2 | 80.3 | 45.2 | 86.5 | 96.8 |
| CO[C@H]1C(=O)[C@]2(C)[C@@H](OC)C[C@H]3OC[C@@]3(OC(C)=O)[C@H]2[C@H](OC(=O)c2ccccc2)[C@]2(O)C[C@H](OC(=O)[C@H](OC(=O)[C@H](F)CCN(C)C)[C@@H](NC(=O)OC(C)(C)C)c3ccccc3)C(C)=C1C2(C)C [Compound 07, 2′-O-[4-(N,N-dimethyl)amino-2(R)-fluorobutyryl]cabazitaxel hydrochloride] |  |  |  |  |  | 79.2 | 95.5 | 100 | 49.5 | 89.6 | 100 |
| CC(=O)OC1C(=O)C2(C)C(O)CC3OCC3(OC(C)=O)C2C(OC(=O)c2ccccc2)C2(O)CC(OC(=O)C(OC(=O)C(CCN(C)C)C(F)(F)F)C(NC(=O)c3ccccc3)c3ccccc3)C(C)=C1C2(C)C.Cc1ccc(S(=O)(=O)O)cc1 [Compound 19, 2′-O-[4-(N,N-dimethyl)amino-2(R,S)-2-trifluoromethylbutyryl]paclitaxel p-toluene sulfonate] | 134.9 ± 11.4 | −8.9 | −48 | 57.3 ± 11.4 | 124 |  |  |  |  |  |  |
| CC(=O)O[C@H]1C(=O)[C@@]2(C)[C@H]([C@H](OC(=O)c3ccccc3)[C@]3(O)C[C@H](OC(=O)[C@H](OC(=O)C(F)CCN(C)C(C)C)[C@@H](NC(=O)c4ccccc4)c4ccccc4)C(C)=C1C3(C)C)[C@]1(OC(C)=O)CO[C@@H]1C[C@@H]2O.Cl (stereo partly drawn) [Compound 18, 2′-O-[4-(N-methyl-N-isopropyl)amino-2(R,S)-fluorobutyryl]paclitaxel hydrochloride] | 127.9 ± 11.4 | −10.3 | −38 | 60.4 ± 12.3 | 98 |  |  |  |  |  |  |
| CCN(C)CC[C@@H](F)C(=O)O[C@@H](C(=O)O[C@H]1C[C@@]2(O)[C@@H](OC(=O)c3ccccc3)[C@@H]3[C@]4(OC(C)=O)CO[C@@H]4C[C@H](O)[C@@]3(C)C(=O)[C@H](OC(C)=O)C(=C1C)C2(C)C)[C@@H](NC(=O)c1ccccc1)c1ccccc1.CS(=O)(=O)O [Compound 16, 2′-O-[4-(N-methyl-N-ethyl)amino-2(R)-fluorobutyryl]paclitaxel methanesulfonate] | 133.6 ± 9.4 | −7.0 | −53 | 55.7 ± 10.6 | 137 |  |  |  |  |  |  |
| CCN(CC)CC[C@](C)(C(=O)O[C@@H](C(=O)O[C@H]1C[C@@]2(O)[C@@H](OC(=O)c3ccccc3)[C@@H]3[C@]4(OC(C)=O)CO[C@@H]4C[C@H](OC)[C@@]3(C)C(=O)[C@H](OC)C(=C1C)C2(C)C)[C@@H](NC(=O)OC(C)(C)C)c1ccccc1)C(F)(F)F.CS(=O)(=O)O [Compound 11, 2′-O-[4-(N,N-diethyl)amino-2-methyl-2(R)-2-trifluoromethylbutyryl]cabazitaxel methanesulfonate] |  |  |  |  |  | 56.2 | 80.5 | 92.1 | 52.3 | 89.6 | 97.2 |
| CO[C@H]1C(=O)[C@]2(C)[C@@H](OC)C[C@H]3OC[C@@]3(OC(C)=O)[C@H]2[C@H](OC(=O)c2ccccc2)[C@]2(O)C[C@H](OC(=O)[C@H](OC(=O)[C@@H](F)CCN(C)C)[C@@H](NC(=O)OC(C)(C)C)c3ccccc3)C(C)=C1C2(C)C.Cl [Compound 08, 2′-O-[4-(N,N-dimethyl)amino-2(S)-fluorobutyryl]cabazitaxel hydrochloride] |  |  |  |  |  | 89.9 | 93.2 | 100 | 47.6 | 87.6 | 100 |

— US10239851B2 (priority 2014, dated 2019)
